Data from US20220313774A1, “INTRANASAL ADMINISTRATION OF MEROTOCIN FOR IMPROVING LACTATION” (FERRING B.V., priority 2019, published 2022).
*1 amine or outer side, *2 acyl side, *3 side chain or, on linkers, in order; H or OH if unused. Where a SMILES comes first, the peptide text is derived from it. Bridges are numbered along the chain shown (N, C = ends). [ ]: non-standard residue; d: D form. N(4-F-Bzl)Gly = O=C(O)CNCc1ccc(F)cc1; X1 = O=C(CCC[*:2])[*:1]

Legend:
[1] = Trial 000015 Part 2: pharmacokinetics after multiple intranasal administrations; format: in vivo, human; conditions: for Cmax / Tmax / AUC(0-t) / half-life: female, human, plasma
Text: The trial was divided into three parts:
Part 2. Ascending multiple i.n. doses.

clinical = conditions: female, human, in vivo
Method: The first clinical trial in human, Trial 000015, was a double-blind, placebo-controlled, single dose, within dose panel randomised, sequential dose escalating study. The trial was divided into three parts:
Part 1. Ascending single i.n. doses. There were 7 dose panels with 8 healthy women in each dose panel (6 active, 2 placebo). The doses investigated were 5 μg, 15 μg, 50 μg, 100 μg, 200 μg, 300 μg, and 400 μg.
Seven dose levels were investigated: 5, 15, 50, 100, 200, 300, and 400 μg. Each of the doses were administered as a nasal spray based on one or multiple puffs per nostril.
FE 202767 was provided as an isotonic citrate/phosphate buffered solution of pH 5.5 in water in vials containing an extractable volume of 0.9 mL (Table 2). The concentration of FE 202767 was 0.7 mg/mL, to be used appropriately diluted with buffer or, for Part 3, NaCl for injection. The buffer used for FE 202767 was used as placebo in this study.

healthy women = conditions: in vivo
[2] = in vivo
[3] = Trial 000015 Part 3: pharmacokinetics, single intranasal and single intravenous cross-over; conditions: female, human, plasma; for Tmax: tmax Mean (SD)
Method: Open-label cross-over single i.n. and single i.v. dose in 6 healthy women. The doses investigated were 20 μg as an i.v. infusion over 25 minutes, and 400 μg as a single i.n. dose.
The intranasal dose was 400 μg (4×140 μl, the same as the highest dose in Part 1), the i.v. dose was 20 μg infused in 2 mL over 25 minutes.
The intravenous dose and infusion rate were determined from the intranasal pharmacokinetic data in Part 1.

[4] = 16 i.n. administrations over 48 hours

CC[C@H](C)[C@@H]1NC(=O)[C@H](Cc2ccc(O)cc2)NC(=O)CCCSC[C@@H](C(=O)N(CC(=O)N[C@@H](CC(C)C)C(=O)NCC(N)=O)Cc2ccc(F)cc2)NC(=O)[C@H](CC(N)=O)NC(=O)[C@H](CCC(N)=O)NC1=O [merotocin, Glycinamide, N-(4-mercapto-1-oxobutyl)-L-tyrosyl-L-isoleucyl-Lglutaminyl-L-asparaginyl-L-cysteinyl-N-[(4-fluorophenyl)methyl]glycyl-L-leucyl-, cyclic (1→5)-thioether] (YIQNC[N(4-F-Bzl)Gly]LG-NH2; linker N-5 via X1)
accumulation [1, 4]: no indications of relevant accumulation
pre-dose concentrations [1, 4]: falling constantly below the LLOQ
Cmax ([1]; inhaled or intranasal, 50 ug, multiple i.n. doses every 3 hours, 50 μg, Dose No. 1, read-out: Cmax Geom. mean (% CV)): 0.0275 ng/mL
Cmax ([1]; inhaled or intranasal, 50 ug, multiple i.n. doses every 3 hours, 50 μg, Dose No. 1, read-out: Cmax Median): 0.0307 ng/mL
Tmax ([1]; inhaled or intranasal, 50 ug, multiple i.n. doses every 3 hours, 50 μg, Dose No. 1, read-out: tmax Mean (SD)): 13.8 min
Cmax ([1]; inhaled or intranasal, 50 ug, multiple i.n. doses every 3 hours, 50 μg, Dose No. 2, read-out: Cmax Median): 0.0302 ng/mL
Cmax ([1]; inhaled or intranasal, 50 ug, multiple i.n. doses every 3 hours, 50 μg, Dose No. 16, read-out: Cmax Median): 0.0266 ng/mL
Tmax ([1]; inhaled or intranasal, 50 ug, multiple i.n. doses every 3 hours, 50 μg, Dose No. 16, read-out: tmax Mean (SD)): 20.4 min
AUC(0-t) ([1]; inhaled or intranasal, 200 ug, multiple i.n. doses every 3 hours, 200 μg, Dose No. 1, read-out: AUCt Geom. mean (% CV)): 0.0804 ng·h/mL
AUC(0-t) ([1]; inhaled or intranasal, 200 ug, multiple i.n. doses every 3 hours, 200 μg, Dose No. 1, read-out: AUCt Median): 0.0876 ng·h/mL
Cmax ([1]; inhaled or intranasal, 200 ug, multiple i.n. doses every 3 hours, 200 μg, Dose No. 1, read-out: Cmax Geom. mean (% CV)): 0.124 ng/mL
Cmax ([1]; inhaled or intranasal, 200 ug, multiple i.n. doses every 3 hours, 200 μg, Dose No. 1, read-out: Cmax Median): 0.125 ng/mL
Tmax ([1]; inhaled or intranasal, 200 ug, multiple i.n. doses every 3 hours, 200 μg, Dose No. 1, read-out: tmax Mean (SD)): 10.8 min
AUC(0-t) ([1]; inhaled or intranasal, 200 ug, multiple i.n. doses every 3 hours, 200 μg, Dose No. 2, read-out: AUCt Geom. mean (% CV)): 0.0752 ng·h/mL
AUC(0-t) ([1]; inhaled or intranasal, 200 ug, multiple i.n. doses every 3 hours, 200 μg, Dose No. 2, read-out: AUCt Median): 0.0706 ng·h/mL
Cmax ([1]; inhaled or intranasal, 200 ug, multiple i.n. doses every 3 hours, 200 μg, Dose No. 2, read-out: Cmax Geom. mean (% CV)): 0.115 ng/mL
Cmax ([1]; inhaled or intranasal, 200 ug, multiple i.n. doses every 3 hours, 200 μg, Dose No. 2, read-out: Cmax Median): 0.118 ng/mL
half-life ([1]; inhaled or intranasal, 200 ug, multiple i.n. doses every 3 hours, 200 μg, Dose No. 2, read-out: t1/2 Harmonic mean (converted)): 26.4 min
Tmax ([1]; inhaled or intranasal, 200 ug, multiple i.n. doses every 3 hours, 200 μg, Dose No. 2, read-out: tmax Mean (SD)): 16.8 min
AUC(0-t) ([1]; inhaled or intranasal, 200 ug, multiple i.n. doses every 3 hours, 200 μg, Dose No. 16, read-out: AUCt Geom. mean (% CV)): 0.16 ng·h/mL
AUC(0-t) ([1]; inhaled or intranasal, 200 ug, multiple i.n. doses every 3 hours, 200 μg, Dose No. 16, read-out: AUCt Median): 0.147 ng·h/mL
Cmax ([1]; inhaled or intranasal, 200 ug, multiple i.n. doses every 3 hours, 200 μg, Dose No. 16, read-out: Cmax Geom. mean (% CV)): 0.218 ng/mL
Cmax ([1]; inhaled or intranasal, 200 ug, multiple i.n. doses every 3 hours, 200 μg, Dose No. 16, read-out: Cmax Median): 0.225 ng/mL
half-life ([1]; inhaled or intranasal, 200 ug, multiple i.n. doses every 3 hours, 200 μg, Dose No. 16, read-out: t1/2 Harmonic mean (converted)): 30.6 min
Tmax ([1]; inhaled or intranasal, 200 ug, multiple i.n. doses every 3 hours, 200 μg, Dose No. 16, read-out: tmax Mean (SD)): 18.6 min
AUC(0-t) ([1]; inhaled or intranasal, 400 ug, multiple i.n. doses every 3 hours, 400 μg, Dose No. 1, read-out: AUCt Geom. mean (% CV)): 0.0771 ng·h/mL
AUC(0-t) ([1]; inhaled or intranasal, 400 ug, multiple i.n. doses every 3 hours, 400 μg, Dose No. 1, read-out: AUCt Median): 0.0702 ng·h/mL
Cmax ([1]; inhaled or intranasal, 400 ug, multiple i.n. doses every 3 hours, 400 μg, Dose No. 1, read-out: Cmax Geom. mean (% CV)): 0.156 ng/mL
Cmax ([1]; inhaled or intranasal, 400 ug, multiple i.n. doses every 3 hours, 400 μg, Dose No. 1, read-out: Cmax Median): 0.136 ng/mL
half-life ([1]; inhaled or intranasal, 400 ug, multiple i.n. doses every 3 hours, 400 μg, Dose No. 1, read-out: t1/2 Harmonic mean (converted)): 21 min
AUC(0-t) ([1]; inhaled or intranasal, 400 ug, multiple i.n. doses every 3 hours, 400 μg, Dose No. 2, read-out: AUCt Geom. mean (% CV)): 0.0888 ng·h/mL
AUC(0-t) ([1]; inhaled or intranasal, 400 ug, multiple i.n. doses every 3 hours, 400 μg, Dose No. 2, read-out: AUCt Median): 0.142 ng·h/mL
Cmax ([1]; inhaled or intranasal, 400 ug, multiple i.n. doses every 3 hours, 400 μg, Dose No. 2, read-out: Cmax Geom. mean (% CV)): 0.169 ng/mL
Cmax ([1]; inhaled or intranasal, 400 ug, multiple i.n. doses every 3 hours, 400 μg, Dose No. 2, read-out: Cmax Median): 0.195 ng/mL
half-life ([1]; inhaled or intranasal, 400 ug, multiple i.n. doses every 3 hours, 400 μg, Dose No. 2, read-out: t1/2 Harmonic mean (converted)): 23.4 min
Tmax ([1]; inhaled or intranasal, 400 ug, multiple i.n. doses every 3 hours, 400 μg, Dose No. 2, read-out: tmax Mean (SD)): 9.6 min
Cmax ([1]; inhaled or intranasal, 400 ug, multiple i.n. doses every 3 hours, 400 μg, Dose No. 16, read-out: Cmax Geom. mean (% CV)): 0.18 ng/mL
Cmax ([1]; inhaled or intranasal, 400 ug, multiple i.n. doses every 3 hours, 400 μg, Dose No. 16, read-out: Cmax Median): 0.192 ng/mL
half-life ([1]; inhaled or intranasal, 400 ug, multiple i.n. doses every 3 hours, 400 μg, Dose No. 16, read-out: t1/2 Median (converted)): 39 min
Tmax ([1]; inhaled or intranasal, 400 ug, multiple i.n. doses every 3 hours, 400 μg, Dose No. 16, read-out: tmax Mean (SD)): 18 min
Tmax ([1]; other: intranasal, 50 ug, multiple i.n. doses every 3 hours, 50 μg, Dose No. 2, read-out: tmax Mean (SD)): 20.4 min
Cmax ([1]; other: intranasal, 50 ug, multiple i.n. doses every 3 hours, 50 μg, Dose No. 16, read-out: Cmax Geom. mean (% CV)): 0.0236 ng/mL
Tmax ([1]; other: intranasal, 400 ug, multiple i.n. doses every 3 hours, 400 μg, Dose No. 1, read-out: tmax Mean (SD)): 6.6 min
AUC(0-t) ([1]; other: intranasal, 400 ug, multiple i.n. doses every 3 hours, 400 μg, Dose No. 16, read-out: AUCt Geom. mean (% CV)): 0.112 ng·h/mL
AUC(0-t) ([1]; other: intranasal, 400 ug, multiple i.n. doses every 3 hours, 400 μg, Dose No. 16, read-out: AUCt Median): 0.112 ng·h/mL
half-life ([1]; other: intranasal, 400 ug, multiple i.n. doses every 3 hours, 400 μg, Dose No. 16, read-out: t1/2 Harmonic mean (converted)): 33.6 min
half-life ([1]; other: intranasal, multiple i.n. doses, all dose groups, read-out: t1/2): 25 to 35 min
Tmax ([1]; other: intranasal, multiple i.n. doses, all dose groups, read-out: tmax): 12 to 15 min
half-life (clinical; inhaled or intranasal, 200 ug, t1/2 Median): 23.4 min
half-life (clinical; inhaled or intranasal, 400 ug, t1/2 Harmonic mean): 33.6 min
half-life (clinical; inhaled or intranasal, 400 ug, t1/2 Median): 33 min
half-life (clinical; t1/2): 25 to 35 min
ECG and safety laboratory parameters (healthy women): not affected to any measurable extent
blood pressure shifts (healthy women): Only occasional events of blood pressure shifts
pulse rate (healthy women): appeared to increase the pulse rate
urinary retention (healthy women): no signs of urinary retention
metabolites of merotocin in plasma or urine samples [2]: No metabolites of merotocin could be detected
degradation by chymotrypsin (chymotrypsin): degradable by chymotrypsin
AUC(0-t) ([3]; inhaled or intranasal, 400 ug, AUCt Geom. mean (% CV), cross-over, 400 μg i.n. single dose, N = 6): 0.083 ng·h/mL
AUC(0-t) ([3]; inhaled or intranasal, 400 ug, AUCt Median, cross-over, 400 μg i.n. single dose, N = 6): 0.0728 ng·h/mL
half-life ([3]; inhaled or intranasal, 400 ug, t1/2 Median, cross-over, 400 μg i.n. single dose, N = 6): 36.6 min
Tmax ([3]; inhaled or intranasal, 400 ug, cross-over, 400 μg i.n. single dose, N = 6): 6.6 min
AUC(0-t) ([3]; iv, 20 ug, AUCt Geom. mean (% CV), cross-over, 20 μg i.v. infusion over 25 minutes, N = 6): 0.146 ng·h/mL
clearance ([3]; iv, 20 ug, CL Median, 20 μg i.v. infusion over 25 minutes, N = 6): 2130 mL/min
Cmax ([3]; iv, 20 μg, Cmax Geom. mean (% CV), cross-over, 20 μg i.v. infusion over 25 minutes, N = 6): 0.463 ng/mL
Cmax ([3]; iv, 20 ug, Cmax Median, cross-over, 20 μg i.v. infusion over 25 minutes, N = 6): 0.463 ng/mL
Vd ([3]; iv, 20 ug, Vz Mean (SD), 20 μg i.v. infusion over 25 minutes, N = 6): 37.5 L
Vd ([3]; iv, 20 ug, Vz Median, 20 μg i.v. infusion over 25 minutes, N = 6): 31.2 L
Cmax ([3]; iv, 20 μg, mean Cmax, single i.v. infusion of 20 μg over 25 minutes): 0.463 ng/mL
half-life ([3]; iv, 20 ug, t1/2 Harmonic mean, cross-over, 20 μg i.v. infusion over 25 minutes, N = 6): 10.2 min
half-life ([3]; iv, 20 ug, t1/2 Median, cross-over, 20 μg i.v. infusion over 25 minutes, N = 6): 10.8 min
Tmax ([3]; iv, 20 ug, cross-over, 20 μg i.v. infusion over 25 minutes, N = 6): 21.6 min
